Reference: patent publication US20230146395A1, “Substituted Pyrimidines and Uses Thereof” (Verge Analytics, Inc., priority 2020, published 2023)

What was measured:
Format in all cases: biochemical
PI3Kα = biological target: T1, PI3Kα (Homo sapiens, UniProt P42336); test: Inhibition of PI3K isoforms: PI3Kα (microfluidic electrophoresis kinase assay, PIP2/PS substrate); conditions: p110α/p85α, ATP 90 μM; read-out: PI3Ka IC50
T1 construct: Full-length N-terminal; FLAG (N); host or cells: SF9 cells (baculovirus)
Procedure: The kinase substrate was prepared by mixing and sonicating fluorescently-labeled phosphatidylinositol 4,5-phosphate (PIP2) with phospho-L-serine (PS) at 1:20 ratio in 50 mM HEPES buffer pH7.5.
The kinase reactions were assembled in 384-well plates (Greiner) in a total volume of […] as follows. The kinase proteins were pre-diluted in an assay buffer comprising 50 mM HEPES, pH 7.5, 0.012% CHAPS, 1 mM DTT, 10 mM Na3VaO4, 10 mM 3-GP, 3 mM MgCl2, and 40 mM NaCl2, and dispensed into a 384-well plate (10 μL per well). Test compounds were serially pre-diluted in DMSO and added to the protein samples by acoustic dispensing (Labcyte Echo). The concentration of DMSO was equalized to 1% in all samples. All test compounds were tested at 12 concentrations. The control samples (0%-inhibition in the absence of inhibitor, DMSO only) and 100%-inhibition (in the absence of enzyme) were assembled in replicates of four and were used to calculate %-inhibition in the presence of test compounds. The reactions were initiated by addition of 10 μL of the PIP2/PS substrate supplemented with ATP. The final concentration of enzymes was 0.5 nM (PI3Kα), 1 nM (PI3Kβ), 10 nM (PI3Kγ), and 0.25 nM (PI3Kδ). The final concentration of ATP was 90 μM (PI3Kα), 60 μM (PI3Kβ), 100 μM (PI3Kγ), and 90 μM (PI3Kδ). The final concentration of PIP2/PS substrate was 1 μM (PIP2). The kinase reactions were allowed to proceed for 3 h at room temperature. Following incubation, the reactions were quenched by addition of 50 μL of termination buffer (100 mM HEPES, pH 7.5, 0.01% Triton X-100, 20 mM EDTA). Terminated plates were analyzed on a microfluidic electrophoresis instrument (Caliper LabChip® 3000, Caliper Life Sciences/Perkin Elmer). The change in the relative fluorescence intensity of the PI(4,5)P substrate and PI(3,4,5)P product peaks was measured. The activity in each test sample was determined as the product to sum ratio (PSR): P/(S+P), where P is the peak height of the product, and S is the peak height of the substrate. Percent inhibition (Pinh) was determined using the following equation:
Pinh=(PSR0% inh−PSRcompound)/(PSR0% inh−PSR100% inh)*100
in which PSRcompound is the product/sum ratio in the presence of compound, PSR0% inh is the product/sum ratio in the absence of compound, and the PSR100% inh is the product/sum ratio in the absence of the enzyme.

PI3Kδ = biological target: T2, PI3Kδ (Homo sapiens, UniProt O00329); test: Inhibition of PI3K isoforms: PI3Kδ (microfluidic electrophoresis kinase assay, PIP2/PS substrate); conditions: p110δ/p85α, ATP 90 μM; read-out: PI3Kd IC50
T2 construct: Full-length N-terminal; GST (N); host or cells: SF9 cells (baculovirus)
Procedure: The kinase substrate was prepared by mixing and sonicating fluorescently-labeled phosphatidylinositol 4,5-phosphate (PIP2) with phospho-L-[…]:20 ratio in 50 mM HEPES buffer pH7.5. The kinase reactions were assembled in 384-well plates (Greiner) in a total volume of […] as follows. The kinase proteins were pre-diluted in an assay buffer comprising 50 mM HEPES, pH 7.5, 0.012% CHAPS, 1 mM DTT, 10 mM Na3VaO4, 10 mM 3-GP, 3 mM MgCl2, and 40 mM NaCl2, and dispensed into a 384-well plate (10 μL per well). Test compounds were serially pre-diluted in DMSO and added to the protein samples by acoustic dispensing (Labcyte Echo). The concentration of DMSO was equalized to 1% in all samples. All test compounds were tested at 12 concentrations. The control samples (0%-inhibition in the absence of inhibitor, DMSO only) and 100%-inhibition (in the absence of enzyme) were assembled in replicates of four and were used to calculate %-inhibition in the presence of test compounds. The reactions were initiated by addition of 10 μL of the PIP2/PS substrate supplemented with ATP. The final concentration of enzymes was 0.5 nM (PI3Kα), 1 nM (PI3Kβ), 10 nM (PI3Kγ), and 0.25 nM (PI3Kδ). The final concentration of ATP was 90 μM (PI3Kα), 60 μM (PI3Kβ), 100 μM (PI3Kγ), and 90 μM (PI3Kδ). The final concentration of PIP2/PS substrate was 1 μM (PIP2). The kinase reactions were allowed to proceed for 3 h at room temperature. Following incubation, the reactions were quenched by addition of 50 μL of termination buffer (100 mM HEPES, pH 7.5, 0.01% Triton X-100, 20 mM EDTA). Terminated plates were analyzed on a microfluidic electrophoresis instrument (Caliper LabChip® 3000, Caliper Life Sciences/Perkin Elmer). The change in the relative fluorescence intensity of the PI(4,5)P substrate and PI(3,4,5)P product peaks was measured. The activity in each test sample was determined as the product to sum ratio (PSR): P/(S+P), where P is the peak height of the product, and S is the peak height of the substrate. Percent inhibition (Pinh) was determined using the following equation: Pinh=(PSR0% inh-PSRcompound)/(PSR0% inh-PSR100% inh)*100 in which PSRcompound is the product/sum ratio in the presence of compound, PSR0% inh is the product/sum ratio in the absence of compound, and the PSR100% inh is the product/sum ratio in the absence of the enzyme. […] (Pinh versus compound concentration) were fitted by a four-parameter sigmoid dose-response model using XLfit software (IDBS).

[1] = biological target: T3, Full length human recombinant PIKFYVE (Homo sapiens, UniProt Q9Y2I7); test: Inhibition of PIKfyve (microfluidic electrophoresis kinase assay, PI3P/PS substrate); conditions: 12 concentrations
T3 construct: Full length human recombinant PIKFYVE; purchased Carna Biosciences (Kobe, Japan); host or cells: baculovirus expression system
In short: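 GST-tagged full-length human PIKFYVE (baculovirus; 2 nM) with fluorescent PI3P/PS (1 μM PI3P) and […] in pH 7.5 HEPES with Mg2+/Mn2+, 1% DMSO, 3 h at room temperature. PI(3,5)P product/substrate ratio read by microfluidic electrophoresis; 12-point % inhibition versus no-enzyme and DMSO controls.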

T1 sequence (P42336 whole entry, canonical isoform): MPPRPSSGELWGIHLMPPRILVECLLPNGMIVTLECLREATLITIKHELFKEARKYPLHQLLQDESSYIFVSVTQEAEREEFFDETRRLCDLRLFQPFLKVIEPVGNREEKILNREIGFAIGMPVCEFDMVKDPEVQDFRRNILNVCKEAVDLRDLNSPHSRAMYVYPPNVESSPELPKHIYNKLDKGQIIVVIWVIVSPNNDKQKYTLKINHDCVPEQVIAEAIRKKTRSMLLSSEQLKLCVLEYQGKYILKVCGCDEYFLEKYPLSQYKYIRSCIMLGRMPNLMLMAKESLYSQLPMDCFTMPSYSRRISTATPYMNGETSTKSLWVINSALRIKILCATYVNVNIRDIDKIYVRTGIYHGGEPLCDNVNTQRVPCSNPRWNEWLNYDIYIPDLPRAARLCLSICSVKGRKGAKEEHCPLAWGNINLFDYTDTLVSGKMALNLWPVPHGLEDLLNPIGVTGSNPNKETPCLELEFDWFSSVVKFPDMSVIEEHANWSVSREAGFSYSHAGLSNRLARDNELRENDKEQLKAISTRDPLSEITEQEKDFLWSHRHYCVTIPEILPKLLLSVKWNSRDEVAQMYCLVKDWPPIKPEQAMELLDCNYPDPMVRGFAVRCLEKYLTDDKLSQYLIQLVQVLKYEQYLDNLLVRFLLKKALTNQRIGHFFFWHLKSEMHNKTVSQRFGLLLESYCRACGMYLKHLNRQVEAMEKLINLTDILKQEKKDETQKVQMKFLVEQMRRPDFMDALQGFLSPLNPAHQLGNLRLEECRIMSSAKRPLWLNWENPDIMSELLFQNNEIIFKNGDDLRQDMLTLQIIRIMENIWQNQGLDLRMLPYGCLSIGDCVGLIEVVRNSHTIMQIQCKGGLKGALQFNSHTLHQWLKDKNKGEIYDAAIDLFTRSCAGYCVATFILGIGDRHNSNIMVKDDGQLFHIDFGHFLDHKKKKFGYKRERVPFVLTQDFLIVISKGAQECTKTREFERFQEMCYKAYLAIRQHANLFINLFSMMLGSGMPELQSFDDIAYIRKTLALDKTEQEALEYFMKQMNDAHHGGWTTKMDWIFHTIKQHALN
T1 sequence (P27986 whole entry partner, canonical isoform): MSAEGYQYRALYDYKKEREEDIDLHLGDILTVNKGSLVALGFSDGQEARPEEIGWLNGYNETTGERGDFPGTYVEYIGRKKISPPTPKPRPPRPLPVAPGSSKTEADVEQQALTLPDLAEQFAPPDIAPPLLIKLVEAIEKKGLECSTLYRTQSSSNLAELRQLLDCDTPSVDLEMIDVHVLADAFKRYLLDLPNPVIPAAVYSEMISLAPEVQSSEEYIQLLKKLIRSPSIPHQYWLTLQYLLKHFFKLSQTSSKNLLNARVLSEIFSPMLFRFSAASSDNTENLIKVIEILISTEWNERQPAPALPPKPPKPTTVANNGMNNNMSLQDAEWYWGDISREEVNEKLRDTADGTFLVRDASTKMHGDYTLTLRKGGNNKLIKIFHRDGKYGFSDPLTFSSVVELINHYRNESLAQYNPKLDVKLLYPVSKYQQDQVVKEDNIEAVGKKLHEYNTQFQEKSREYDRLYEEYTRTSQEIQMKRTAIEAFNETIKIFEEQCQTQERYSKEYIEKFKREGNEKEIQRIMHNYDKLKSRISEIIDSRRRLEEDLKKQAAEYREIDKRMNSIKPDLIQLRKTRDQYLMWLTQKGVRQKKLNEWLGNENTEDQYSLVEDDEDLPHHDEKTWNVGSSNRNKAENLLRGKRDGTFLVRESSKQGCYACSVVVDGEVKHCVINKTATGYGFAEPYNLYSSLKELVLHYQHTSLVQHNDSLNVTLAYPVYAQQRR
T3 sequence (Q9Y2I7 whole entry): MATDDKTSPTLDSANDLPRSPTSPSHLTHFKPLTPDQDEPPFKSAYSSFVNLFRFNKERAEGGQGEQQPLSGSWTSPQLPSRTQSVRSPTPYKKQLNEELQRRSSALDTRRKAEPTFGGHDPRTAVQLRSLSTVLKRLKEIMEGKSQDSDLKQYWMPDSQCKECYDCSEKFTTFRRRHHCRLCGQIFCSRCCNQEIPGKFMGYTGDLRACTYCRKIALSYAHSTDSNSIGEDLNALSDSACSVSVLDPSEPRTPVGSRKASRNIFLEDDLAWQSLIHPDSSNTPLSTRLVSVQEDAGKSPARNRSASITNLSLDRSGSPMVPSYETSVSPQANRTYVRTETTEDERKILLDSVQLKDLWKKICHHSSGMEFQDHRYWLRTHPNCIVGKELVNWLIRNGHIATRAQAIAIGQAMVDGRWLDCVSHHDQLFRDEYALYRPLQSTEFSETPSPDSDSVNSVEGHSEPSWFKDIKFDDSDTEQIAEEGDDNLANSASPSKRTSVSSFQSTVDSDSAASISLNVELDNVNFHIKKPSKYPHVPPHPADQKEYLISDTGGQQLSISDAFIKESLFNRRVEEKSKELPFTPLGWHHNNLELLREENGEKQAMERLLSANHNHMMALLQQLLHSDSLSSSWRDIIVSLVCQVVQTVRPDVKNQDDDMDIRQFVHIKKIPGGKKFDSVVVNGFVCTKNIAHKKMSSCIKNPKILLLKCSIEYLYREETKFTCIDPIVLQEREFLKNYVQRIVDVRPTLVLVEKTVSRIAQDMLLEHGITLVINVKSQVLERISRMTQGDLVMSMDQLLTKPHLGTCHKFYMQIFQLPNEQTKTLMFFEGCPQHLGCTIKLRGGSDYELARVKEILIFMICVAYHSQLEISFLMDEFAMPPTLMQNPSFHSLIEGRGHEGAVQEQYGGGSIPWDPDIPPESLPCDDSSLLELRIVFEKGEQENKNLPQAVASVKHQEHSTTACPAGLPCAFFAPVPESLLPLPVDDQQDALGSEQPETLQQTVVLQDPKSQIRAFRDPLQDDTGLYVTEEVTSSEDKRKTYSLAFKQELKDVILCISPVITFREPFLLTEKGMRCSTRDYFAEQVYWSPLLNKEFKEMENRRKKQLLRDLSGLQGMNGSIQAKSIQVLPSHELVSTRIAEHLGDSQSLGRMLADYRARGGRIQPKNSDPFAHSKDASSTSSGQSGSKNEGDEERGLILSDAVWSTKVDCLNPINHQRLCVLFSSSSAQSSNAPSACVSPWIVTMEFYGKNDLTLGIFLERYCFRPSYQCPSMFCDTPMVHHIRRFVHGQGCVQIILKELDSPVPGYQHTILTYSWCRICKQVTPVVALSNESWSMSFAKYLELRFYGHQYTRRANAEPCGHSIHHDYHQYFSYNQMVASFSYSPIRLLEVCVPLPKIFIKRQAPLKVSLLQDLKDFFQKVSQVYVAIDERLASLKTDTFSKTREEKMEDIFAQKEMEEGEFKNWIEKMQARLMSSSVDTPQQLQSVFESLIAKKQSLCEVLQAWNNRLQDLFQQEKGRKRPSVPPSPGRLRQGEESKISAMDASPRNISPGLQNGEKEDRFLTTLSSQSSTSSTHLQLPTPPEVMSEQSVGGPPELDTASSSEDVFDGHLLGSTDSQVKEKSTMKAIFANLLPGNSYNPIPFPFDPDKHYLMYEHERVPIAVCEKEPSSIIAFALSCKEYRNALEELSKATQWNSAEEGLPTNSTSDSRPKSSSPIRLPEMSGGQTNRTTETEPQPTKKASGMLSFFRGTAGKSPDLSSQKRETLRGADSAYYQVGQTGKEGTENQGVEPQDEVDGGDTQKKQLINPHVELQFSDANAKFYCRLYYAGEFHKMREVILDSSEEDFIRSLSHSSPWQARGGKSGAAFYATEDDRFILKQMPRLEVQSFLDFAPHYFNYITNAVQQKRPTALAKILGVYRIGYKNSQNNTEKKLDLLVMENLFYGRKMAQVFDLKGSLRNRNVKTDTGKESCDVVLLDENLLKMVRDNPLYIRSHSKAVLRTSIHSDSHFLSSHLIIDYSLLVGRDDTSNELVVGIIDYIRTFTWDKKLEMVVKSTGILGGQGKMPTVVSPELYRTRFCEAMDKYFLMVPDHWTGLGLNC
T2 sequence (O00329 whole entry, canonical isoform): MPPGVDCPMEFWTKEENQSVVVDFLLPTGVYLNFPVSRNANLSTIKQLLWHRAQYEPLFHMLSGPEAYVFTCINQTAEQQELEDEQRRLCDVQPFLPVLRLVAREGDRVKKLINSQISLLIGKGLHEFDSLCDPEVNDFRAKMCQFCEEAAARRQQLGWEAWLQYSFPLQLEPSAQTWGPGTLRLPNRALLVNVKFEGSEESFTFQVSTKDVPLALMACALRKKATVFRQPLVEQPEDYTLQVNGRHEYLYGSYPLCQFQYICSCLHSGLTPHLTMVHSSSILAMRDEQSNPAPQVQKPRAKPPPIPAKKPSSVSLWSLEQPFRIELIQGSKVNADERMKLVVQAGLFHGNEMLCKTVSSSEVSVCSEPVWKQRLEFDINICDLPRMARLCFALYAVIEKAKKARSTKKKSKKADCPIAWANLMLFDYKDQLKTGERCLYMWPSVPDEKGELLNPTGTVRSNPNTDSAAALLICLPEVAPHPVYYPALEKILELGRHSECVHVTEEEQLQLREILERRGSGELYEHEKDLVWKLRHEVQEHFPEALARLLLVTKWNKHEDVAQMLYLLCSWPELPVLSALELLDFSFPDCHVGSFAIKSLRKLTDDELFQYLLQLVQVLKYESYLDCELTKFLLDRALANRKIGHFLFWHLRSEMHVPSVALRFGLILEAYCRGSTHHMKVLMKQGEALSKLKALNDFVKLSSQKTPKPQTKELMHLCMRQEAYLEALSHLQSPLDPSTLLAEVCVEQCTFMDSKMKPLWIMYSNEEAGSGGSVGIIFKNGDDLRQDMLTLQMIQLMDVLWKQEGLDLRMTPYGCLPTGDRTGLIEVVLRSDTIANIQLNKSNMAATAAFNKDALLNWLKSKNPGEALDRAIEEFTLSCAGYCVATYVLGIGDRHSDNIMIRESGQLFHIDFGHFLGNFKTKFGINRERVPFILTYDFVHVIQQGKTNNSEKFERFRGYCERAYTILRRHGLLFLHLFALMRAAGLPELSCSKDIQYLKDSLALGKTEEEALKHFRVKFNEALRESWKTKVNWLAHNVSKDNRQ
T2 sequence (P27986 whole entry partner, canonical isoform): as the sequence (P27986 whole entry partner, canonical isoform) above

CNC(=O)c1cc2nc(Nc3cc(C4CCC4)n[nH]3)nc(N3CCOCC3)c2o1 [Compound 80, 2-((5-cyclobutyl-1H-pyrazol-3-yl)amino)-N-methyl-4-morpholinofuro[3,2-d]pyrimidine-6-carboxamide, hydrogen chloride]
IC50 (PI3Kα): 5.52 µM | IC50 (PI3Kδ): 0.454 µM | IC50 [1]: 5.5 µM

c1cc(-c2cc3nc(Nc4cc(C5CCC5)n[nH]4)nc(N4CCOCC4)c3o2)ccn1 [Compound 70, N-(5-cyclobutyl-1H-pyrazol-3-yl)-4-morpholino-6-(pyridin-4-yl)furo[3,2-d]pyrimidin-2-amine, hydrogen chloride]
IC50 (PI3Kα): 4.14 µM | IC50 (PI3Kδ): 0.164 µM | IC50 [1]: 0.142 µM

CNC(=O)c1cc2nc(Nc3cc(CC4CCCC4)n[nH]3)nc(N3CCOCC3)c2o1 [Compound 84, 2-((5-(cyclopentylmethyl)-1H-pyrazol-3-yl)amino)-N-methyl-4-morpholinofuro[3,2-d]pyrimidine-6-carboxamide, hydrogen chloride]
IC50 (PI3Kα): 4.53 µM | IC50 (PI3Kδ): 0.218 µM | IC50 [1]: ≥ 20 µM
